According to patent publication US20230293526A1, “METHOD FOR TREATING CANCER WITH A REVERSE TRANSCRIPTASE INHIBITOR” (PrimeFour Therapeutics, Inc., priority 2020, published 2023):

System: cancer cell lines
Experiment: Cancer cell proliferation activity of representative nucleosides, CellTiterGlo 72 h (Example 7, Tables 8 and 9)
Assay type: cell-based
Experimental: Dose response relationships on cell proliferation was assessed for representative nucleosides on cancer cell lines. Briefly, compound treatment of cells started one day after seeding with a final DMSO concentration of 0.1%, and was performed by nanodrop-dispensing using a Tecan Dispenser. 0.1% DMSO (solvent) and Staurosporine (10 μM) served as high control (100% viability) and low control (0% viability), respectively. Cells were cultured in the appropriate media. For the assays, cells were seeded in white cell culture-treated flat and clear bottom multiwell plates and incubated at 37° C. overnight before compound was added. After incubation for 72 h at 37° C. at 5% or 10% CO2 dependent on the medium, cell plates were equilibrated to room temperature for one hour, CellTiterGlo reagent (Promega) was added and luminescence was measured approximately an hour later using a luminometer.
Raw data were converted into percent cell viability relative to the high and low control, which were set to 100% and 0%, respectively.

## Cc1cn([C@H]2C[C@H](O)[C@@](C#N)(CO)O2)c(=O)[nH]c1=O [compound 31]
72 h, 5637, 72 h (Table 9)
  IC50: > 50 µM
72 h, CLS439, 72 h (Table 9)
  IC50: > 50 µM
72 h, HS729, 72 h (Table 9)
  IC50: > 50 µM
72 h, J82, 72 h (Table 9)
  IC50: 4.88 µM
72 h, JAR, 72 h (Table 9)
  IC50: > 50 µM
72 h, MT3, 72 h (Table 9)
  IC50: 3.77 µM
72 h, PC3, 72 h (Table 9)
  IC50: > 50 µM
72 h, RD, 72 h (Table 9)
  IC50: > 50 µM
72 h, T24, 72 h (Table 9)
  IC50: 3.01 µM
Homo sapiens, 22Rv1, 72 h, 22RV1, 72 h (Table 9)
  IC50: 1.06 µM
Homo sapiens, 786-0, 72 h, 786O, 72 h (Table 9)
  IC50: > 50 µM
Homo sapiens, A204, 72 h, A204, 72 h (Table 9)
  IC50: 2.55 µM
Homo sapiens, A549, 72 h, A549, 72 h (Table 9)
  IC50: > 50 µM
Homo sapiens, A673, 72 h, A673, 72 h (Table 9)
  IC50: 5.25 µM
Homo sapiens, A2780, 72 h, A2780, 72 h (Table 9)
  IC50: > 50 µM
Homo sapiens, A-375, 72 h, A375, 72 h (Table 9)
  IC50: > 50 µM
Homo sapiens, A-431, 72 h, A431, 72 h (Table 9)
  IC50: 2.6 µM
Homo sapiens, ACHN, 72 h, 72 h (Table 9)
  IC50: 4.02 µM
Homo sapiens, ASPC1, 72 h, ASPC1, 72 h (Table 9)
  IC50: > 50 µM
Homo sapiens, BT-20, 72 h, BT20, 72 h (Table 9)
  IC50: > 50 µM
Homo sapiens, BXPC-3, 72 h, BXPC3, 72 h (Table 9)
  IC50: 6.34 µM
Homo sapiens, C-33-A, 72 h, C33A, 72 h (Table 9)
  IC50: 1.75 µM
Homo sapiens, CAKI-1, 72 h, CAKI1, 72 h (Table 9)
  IC50: > 50 µM
Homo sapiens, COLO 205, 72 h, COLO205, 72 h (Table 9)
  IC50: > 50 µM
Homo sapiens, COLO-678, 72 h, COLO678, 72 h (Table 9)
  IC50: > 50 µM
Homo sapiens, Ca-Ski, 72 h, CASKI, 72 h (Table 9)
  IC50: > 50 µM
Homo sapiens, Caco-2, 72 h, CACO2, 72 h (Table 9)
  IC50: > 50 µM
Homo sapiens, Calu-6, 72 h, CALU6, 72 h (Table 9)
  IC50: > 50 µM
Homo sapiens, DLD-1, 72 h, DLD1, 72 h (Table 9)
  IC50: 4.59 µM
Homo sapiens, DU-145, 72 h, DU145, 72 h (Table 9)
  IC50: 5.46 µM
Homo sapiens, EFO-21, 72 h, EFO21, 72 h (Table 9)
  IC50: > 50 µM
Homo sapiens, EJ-28, 72 h, EJ28, 72 h (Table 9)
  IC50: > 50 µM
Homo sapiens, Granta-519, 72 h, GRANTA-519, 72 h (Table 9)
  IC50: 3.15 µM
Homo sapiens, HCT-15, 72 h, HCT15, 72 h (Table 9)
  IC50: > 50 µM
Homo sapiens, HCT-116, 72 h, HCT116, 72 h (Table 9)
  IC50: > 50 µM
Homo sapiens, HEK293, 72 h, HEK293, 72 h (Table 9)
  IC50: > 50 µM
Homo sapiens, HL-60, 72 h, HL-60, 72 h (Table 9)
  IC50: > 50 µM
Homo sapiens, HT-29, 72 h, HT29, 72 h (Table 9)
  IC50: > 50 µM
Homo sapiens, HT-1080, 72 h, HT1080, 72 h (Table 9)
  IC50: > 50 µM
Homo sapiens, HeLa, 72 h, 72 h (Table 9)
  IC50: > 50 µM
Homo sapiens, HepG2, 72 h, HEPG2, 72 h (Table 9)
  IC50: 5.08 µM
Homo sapiens, Hs-578T, 72 h, HS578T, 72 h (Table 9)
  IC50: > 50 µM
Homo sapiens, IGROV-1, 72 h, IGROV1, 72 h (Table 9)
  IC50: > 50 µM
Homo sapiens, IMR-90, 72 h, IMR90, 72 h (Table 9)
  IC50: > 50 µM
Homo sapiens, JEG-3, 72 h, JEG3, 72 h (Table 9)
  IC50: > 50 µM
Homo sapiens, JIMT-1, 72 h, JIMT1, 72 h (Table 9)
  IC50: > 50 µM
Homo sapiens, K562, 72 h, K-562, 72 h (Table 9)
  IC50: > 50 µM
Homo sapiens, Kasumi 1, 72 h, KASUMI-1, 72 h (Table 9)
  IC50: > 50 µM
Homo sapiens, L-363, 72 h, L-363, 72 h (Table 9)
  IC50: > 50 µM
Homo sapiens, LoVo, 72 h, 72 h (Table 9)
  IC50: 3.55 µM
Homo sapiens, MCF7, 72 h, MCF7, 72 h (Table 9)
  IC50: > 50 µM
Homo sapiens, MDA-MB-231, 72 h, MDAMB231, 72 h (Table 9)
  IC50: > 50 µM
Homo sapiens, MDA-MB-435, 72 h, MDAMB435, 72 h (Table 9)
  IC50: > 50 µM
Homo sapiens, MDA-MB-436, 72 h, MDAMB436, 72 h (Table 9)
  IC50: 5.24 µM
Homo sapiens, MDA-MB-468, 72 h, MDAMB468, 72 h (Table 9)
  IC50: > 50 µM
Homo sapiens, MG-63, 72 h, MG63, 72 h (Table 9)
  IC50: > 50 µM
Homo sapiens, MHH-ES-1, 72 h, MHHES1, 72 h (Table 9)
  IC50: 3.07 µM
Homo sapiens, MIA PaCa-2, 72 h, MIAPACA2, 72 h (Table 9)
  IC50: > 50 µM
Homo sapiens, MINO, 72 h, 72 h (Table 9)
  IC50: 3.91 µM
Homo sapiens, MV4-11, 72 h, MV4-11, 72 h (Table 9)
  IC50: 0.38 µM
Homo sapiens, NCI-H23, 72 h, NCI-H23, 72 h (Table 9)
  IC50: 4.05 µM
Homo sapiens, NCI-H82, 72 h, NCIH82, 72 h (Table 9)
  IC50: 5.25 µM
Homo sapiens, NCI-H292, 72 h, NCIH292, 72 h (Table 9)
  IC50: > 50 µM
Homo sapiens, NCI-H460, 72 h, NCIH460, 72 h (Table 9)
  IC50: 2.8 µM
Homo sapiens, OVCAR-3, 72 h, OVCAR3, 72 h (Table 9)
  IC50: > 50 µM
Homo sapiens, OVCAR-4, 72 h, OVCAR4, 72 h (Table 9)
  IC50: > 50 µM
Homo sapiens, PANC-1, 72 h, PANC1, 72 h (Table 9)
  IC50: > 50 µM
Homo sapiens, PLC-PRF-5, 72 h, PLCPRF5, 72 h (Table 9)
  IC50: 5.05 µM
Homo sapiens, Panc1005, 72 h, PANC1005, 72 h (Table 9)
  IC50: > 50 µM
Homo sapiens, Ramos, 72 h, 72 h (Table 9)
  IC50: > 50 µM
Homo sapiens, SAOS-2, 72 h, SAOS2, 72 h (Table 9)
  IC50: > 50 µM
Homo sapiens, SF-268, 72 h, SF268, 72 h (Table 9)
  IC50: 14.6 µM
Homo sapiens, SF-295, 72 h, SF295, 72 h (Table 9)
  IC50: > 50 µM
Homo sapiens, SK-BR-3, 72 h, SKBR3, 72 h (Table 9)
  IC50: 3.44 µM
Homo sapiens, SK-HEP1, 72 h, SKHEP1, 72 h (Table 9)
  IC50: 3.15 µM
Homo sapiens, SK-LMS-1, 72 h, SKLMS1, 72 h (Table 9)
  IC50: 2.88 µM
Homo sapiens, SK-MEL-5, 72 h, SKMEL5, 72 h (Table 9)
  IC50: > 50 µM
Homo sapiens, SK-MEL-28, 72 h, SKMEL28, 72 h (Table 9)
  IC50: > 50 µM
Homo sapiens, SK-N-AS, 72 h, SKNAS, 72 h (Table 9)
  IC50: > 50 µM
Homo sapiens, SK-N-SH, 72 h, SKNSH, 72 h (Table 9)
  IC50: > 50 µM
Homo sapiens, SK-OV-3, 72 h, SKOV3, 72 h (Table 9)
  IC50: > 50 µM
Homo sapiens, SNB-75, 72 h, SNB75, 72 h (Table 9)
  IC50: 4.52 µM
Homo sapiens, SU-DHL10, 72 h, SU-DHL-10, 72 h (Table 9)
  IC50: > 50 µM
Homo sapiens, SU-DHL-6, 72 h, SU-DHL-6, 72 h (Table 9)
  IC50: 3.92 µM
Homo sapiens, SW-620, 72 h, SW620, 72 h (Table 9)
  IC50: > 50 µM
Homo sapiens, TE-671, 72 h, TE671, 72 h (Table 9)
  IC50: > 50 µM
Homo sapiens, THP-1, 72 h, THP-1, 72 h (Table 9)
  IC50: 2.49 µM
Homo sapiens, U2OS, 72 h, 72 h (Table 9)
  IC50: > 50 µM
Homo sapiens, U-87 MG, 72 h, U87MG, 72 h (Table 9)
  IC50: 5.23 µM
Homo sapiens, UMUC3, 72 h, UMUC3, 72 h (Table 9)
  IC50: > 50 µM
Homo sapiens, UO-31, 72 h, UO31, 72 h (Table 9)
  IC50: > 50 µM
Homo sapiens, WSU-NHL, 72 h, 72 h (Table 9)
  IC50: 4.26 µM
NCI-H358M, 72 h, NCIH358M, 72 h (Table 9)
  IC50: > 50 µM
PBMC, 72 h, 72 h (Table 9)
  IC50: > 50 µM
RD-ES, 72 h, RDES, 72 h (Table 9)
  IC50: 3.65 µM
